Ends that are not written are not given here. {propylamine} = propylamine end group; fluorescein = fluorescein label; fluor = fluorescein label
Experiments:
SK-BR-3 cells [1] = conditions: 200 nM peptide, 15 minutes on ice
Procedure: FIG. 3, comprising FIG. 3A, FIG. 3B, and FIG. 3C, is a series of images of fluorescent micrographs illustrating the effects of a cell penetrating domain on the efficiency of composite receptors binding.
SK-BR-3 cells were collected and washed and resuspended in DPBS-BSA. Then, 5×10^4 cells were mixed with 200 nM CR1 or delta-CR1 in 40 μl DPBS-BSA and incubated 15 minutes on ice. The cell were then washed in DPBS-BSA, resuspended in 50 μl DPBS-BSA, washed, and applied to slides. Fluorescence was analyzed by fluorescence microscopy using a monochrome filter for FITC. […] FIG. 3C depicts cells incubated with […] CR1.

HeLa cells [2] = experiment: Peptide mediated uptake of oligonucleotide FITC-O-24, FACS (FIG. 7); format: cell-based, human; conditions: peptide 0.0-150 μM, fifteen minutes at room temperature
Procedure: Flow cytometric analyses of cell subpopulations for these and other experiments described herein were performed using a FACS Vantage flow cytometer (Becton-Dickinson Immunocytometry Systems, San Jose, Calif.). The cells were excited at 488 nm. The FITC fluorescence was collected through a 530/30 nm band pass filter. A minimum of ten thousand cells was interrogated in each sample. Analysis of data was performed using CellQuest software (Becton-Dickinson).
To detect fluorescent labeled molecules associated with cells, the cells were first harvested in DPBS, incubated with a fluorescent labeled molecule of interest at varied concentrations (e.g., oligonucleotide at 50 μM mixed with 1×10^5 cells in 10 μl DPBS), incubated for 15 minutes at room temperature, diluted with 200 μl growth medium, and then analyzed by fluorescence activated cell sorting (FACS).
Next, various peptide sequences and domains were tested for their abilities to facilitate translocation of the oligonucleotide FITC-O-24 across a cell membrane. The peptides tested included: K16 (G4K16; SEQ ID NO: 47); TAT (G4YGRKKRRQR3; SEQ ID NO: 48); TAK8 (G4YGRKKRRQR3G4K8; SEQ ID NO: 49); TAK12 (G4YGRKKRRQR3G4K12; SEQ ID NO: 50) and TAK16/TatK16 (G4YGRKKRRQR3G4K16; SEQ ID NO: 36). HeLa cells (1×10^5) were incubated with the oligonucleotide (0.6 μl, 50 μM) in 10 μl DPBS and various concentrations of the peptides (i.e., 0.0, 1.5, 5.0, 15.0, 50.0, or 150 μM). The cells were incubated in the presence of the mixtures for fifteen minutes at room temperature and then analyzed by FACS.

SK-BR-3 cells [3] = experiment: Peptide facilitated translocation of Cy3-O18 oligonucleotide, fluorescence microscopy (FIG. 6); format: cell-based, human; conditions: for Cy3 label of the oligonucleotide in cells: mixture of Cy3-oligonucleotide and fluorescein labeled peptide
SupFG1 gene = experiment: Chromosomal mutations induced in the SupFG1 gene by triplex forming oligonucleotides; format: cell-based; conditions: murine cell line with SupFG1 gene in the genome; mutations/total plaques
Procedure: The ability of TAK16 to facilitate translocation of oligonucleotides designed to form triplex DNA complexes with the SupFG1 sequence was tested in a murine cell line in which the SupFG1 gene is incorporated into the genome. The assay used measures chromosomal mutations induced in the SupFG1 gene by triplex forming oligonucleotides, as measured by mutations/total plaques. The ability of TAK16 to translocate triplex forming oligonucleotides was compared to that of Antennapedia (ANTP)-s-s-oligo complex and the lipid delivery system Gene Porter. The two oligonucleotides tested were AG13 (5′-AGGAA8-propylamine-3′; SEQ ID NO: 58) and AG30 (5′-AGGAAG8TGGTG5AG5AG-propylamine-3′; SEQ ID NO: 59). The groups tested were 1) control (no treatment); 2) AG13 alone; 3) AG13+Gene Porter; 4) AG13-s-s-ANTP; 5) AG13+TAK16; 6) AG30+Gene Porter; and 7) AG30+TAK16. […] It can be seen that the two highest mutation rates occurred in cells treated with AG13+TAK16 (group 5; 40×10^−5) and AG30+TAK16 (group 7; 36×10^−5).

SK-BR-3 cells [4] = experiment: Localization of fluorescein labeled composite receptor peptides in cells, fluorescence microscopy (FIG. 1); format: cell-based, human; conditions: 800 nM Tat-K16, 800 nM CR1 or 400 nM CR2, 15 minutes
HeLa cells [5] = experiment: TAK16 mediated uptake of 83-mer oligonucleotide O-83-FITC, FACS and fluorescence microscopy (FIG. 9, 10); format: cell-based, human; conditions: TAK16 13.3 μM, O-83-FITC 0.00-1.8 μM
SK-BR-3 cells [6] = experiment: Translocation of fluorescein labeled peptides containing a cell penetrating domain (FIG. 5); format: cell-based, human; conditions: 800 nM peptide, fifteen minutes at 37° C.
HeLa cells [7] = experiment: Peptide-oligo mediated uptake of horseradish peroxidase-avidin (HPA), cytochemical analysis (FIG. 13); format: cell-based, human; conditions: TAK16 and Bio-O-22, 30 minutes at 37° C.
Procedure: To further determine the ability of a fusion peptide to facilitate transport of a molecule associated with a nucleic acid across a cell membrane, TAK16 was tested for its ability to mediate transport of another protein. In this example, the protein horseradish peroxidase (HRP) was tested. The HRP was conjugated to avidin to yield 120 kD Horseradish Peroxidase-Avidin (HPA). Cells were obtained as above. HPA and Bio-O-22 were added to cells in DPBS at final concentrations of 8 μM and 8 μM, respectively, and then incubated for 15 minutes at room temperature. Then, 2.5 μl of the mix was added to 2×10^5 HeLa cells in 10 μl DPBS. Next, 12.5 μl of 100 μM TAK16 in DPBS was added to the mixture and incubated for 30 minutes at 37° C. Then the cells were washed and applied to slides. Cells on the slides were treated with 30 μl peroxidase suppressor solution to suppress endogenous peroxidase, washed with DPBS, treated with 30 μl Metal Enhanced DAB Substrate Working Solution, incubated for 15 minutes at room temperature, and then subjected to microscopic analysis. […] HPA activity or presence was detected using the DAB kit and the manufacturer's protocol.

HeLa cells [8] = experiment: TAK16 mediated uptake of FITC-O-24, fluorescence microscopy (FIG. 8); format: cell-based, human; conditions: TAK16 0.00, 0.36, 1.80 or 9.00 μM, FITC-O-24 2.5 μM
HeLa cells [9] = experiment: TAK16 mediated uptake of Cy3 labeled 400 bp double stranded DNA and 5 kb plasmid DNA (FIG. 11); format: cell-based, human
Procedure: Next, it was decided to determine whether even larger nucleotides, including double stranded (DS) DNA or plasmid DNA, could be transported into a cell. Specifically, it was determined whether TAK16 could facilitate the transport of 400 base pair (bp) double stranded DNA and a 5 kb circular plasmid DNA (pECFP; enhanced cyano fluorescent protein) into cells. The DNAs were labeled with Cy3 reagent (“Label IT” Cy3 Nucleic Acid Labeling Kit; Mirus, Madison, Wis.), according to manufacturer's directions. This protocol usually yields one label per up to ten nucleotides. To this end, HeLa cells were prepared as above and then incubated with 400 ng of plasmid DNA or 60 ng of 400 bp DNA and with TAK16 (12 μM).

[10] = Intracellular transport of beta-galactosidase conjugated to an oligonucleotide; format: cell-based; conditions: similar experiments
HeLa cells [11] = experiment: Peptide-oligo mediated uptake of avidin-FITC (FIG. 12); format: cell-based, human
SK-BR-3 cells [12] = conditions: 60 nM CR1 or CR1R, 30 minutes on ice, sodium azide
Procedure: This difference in membrane orientation can be detected using an anti-FITC antibody which cannot penetrate the cellular membrane and therefore can only bind to an FITC on the outer cell surface. For CR1, FITC is an intracellular domain. However, for CR1R, FITC is an extracellular domain. […] SK-BR-3 cells were collected and washed in DPBS with 0.5% BSA (DPBS-BSA), resuspended in DPBS-BSA with 10 mM Sodium Azide, incubated for 20 minutes at room temperature, transferred to ice. 5×10^4 cells were mixed with 60 nM CR1 or CR1R in 20 μl DPBS-BSA, incubated 30 min on ice, washed in DPBS-BSA -Azide, and then resuspended in 50 μl DPBS-BSA-Azide. Then, 50 μl of anti-antibody in DPBS-BSA-Azide (dilution 1:50) was added, the suspension incubated on ice for 30 minutes, and then the cells were washed and applied to slides. Alexa-Fluor 594 fluorescence was analyzed by microscope using monochrome filter for Cy3.5.
This difference in orientation can be detected using an anti-FITC antibody which cannot penetrate the cellular membrane and therefore can only bind FITC which is on the outside cell surface and not inside the cell. […] Alexa-Fluor 594 fluorescence was analyzed using a fluorescent microscope and a monochrome filter for Cy3.5.

FITC-G3G3AAL3A19WK8-biotin [delta-CR1]
FITC fluorescence on the cell membrane (SK-BR-3 cells [1]): low level of fluorescence on the cell membrane

G4YGRKKRRQR3G4K12 (GGGGYGRKKRRQRRRGGGGKKKKKKKKKKKK; Human immunodeficiency virus type 1) [TAK12]
facilitating transport of FITC-O-24 across the cell membrane (HeLa cells [2]): decreased ability to facilitate transport

fluor-G4YGRKKRRQR (fluorescein-GGGGYGRKKRRQR) [Tat, reference compound]
Cy3 label of the oligonucleotide in cells (SK-BR-3 cells [3]): not detected

G4K16 (GGGGKKKKKKKKKKKKKKKK; FITC-0-24 oligonucleotide cell membrane translocation facilitating peptide) [reference compound]
facilitating transport of FITC-O-24 across the cell membrane (HeLa cells [2]): Neither TAT, nor adapter domain, K16, were able to efficiently facilitate transport

5′-AGGAA8-propylamine-3′ (AGGAAAAAAAAA; 3' {propylamine}, sugars by position and backbone not given here) [AG13]
chromosomal mutation frequency induced in the SupFG1 gene (SupFG1 gene): 8 ×10^−5

fluor-G3YGRKKRRQR3G3AAL3A19WK8-biotin [CR1]
localization of fluorescein labeled peptide in the cell (SK-BR-3 cells [4]): localized at the periphery of the cells, in a speckled distribution
FITC fluorescence on the cell membrane (SK-BR-3 cells [1]): high levels of fluorescence occur on the cell membrane

fluor-G4YGRKKRRQR3G4K16 (fluorescein-GGGGYGRKKRRQRRRGGGGKKKKKKKKKKKKKKKK) [Tat-K16]
localization of fluorescein labeled peptide in the cell (SK-BR-3 cells [4]): located throughout the cell
cell associated fluorescent intensity of O-83-FITC (FACS) (HeLa cells [5]; FACS): increased with increasing amounts of the 83-mer
cellular associated fluorescence of O-83-FITC (microscopy) (HeLa cells [5]; fluorescent microscopic analysis): increased cellular associated fluorescence
entry of peptide into the cell and localization (SK-BR-3 cells [6]): entered the cell and were located in both the cytoplasm and the nucleus
oligonucleotide Cy3-O18 translocation through the cell membrane (SK-BR-3 cells [3]; 500 nM oligonucleotide and 80 nM peptide, fifteen minutes at 37° C.): facilitated
Cy3 label of the oligonucleotide in cells (SK-BR-3 cells [3]): located in the cytoplasm as well as in the nucleus
facilitating transport of FITC-O-24 across the cell membrane (HeLa cells [2]): most efficient
HPA uptake, with oligonucleotide Bio-O-22 (HeLa cells [7]): facilitated
fluorescent intensity associated with FITC-O-24 (HeLa cells [8]): increased in the cells incubated with increased amounts of TAK16 peptide
cells with uptake of large double stranded DNA molecules, linear and circular (HeLa cells [9]; TAK16 12 μM): ~100%
uptake of Cy3 labeled 400 bp DS DNA or plasmid DNA (fluorescence) (HeLa cells [9]; […], TAK16 12 μM or no peptide): obvious fluorescence
intracellular transport of a 140 kD protein (beta-galactosidase) conjugated to an oligonucleotide [10]: able to facilitate intracellular transport
fluorescence of avidin-FITC in cells, with oligonucleotide Bio-O-22 (HeLa cells [11]; TAK16 + Bio-O-22 + avidin-FITC, 20 minutes at 37° C.): much higher levels of fluorescence
fluorescence of avidin-FITC in cells, no oligonucleotide (HeLa cells [11]; TAK16 and avidin-FITC, without Bio-O-22): did not exhibit appreciable levels of fluorescence

biotin-G3YGRKKRRQR3G3AAL3A19WK8-FITC [CR1R]
fluorescence of anti-fluorescein (anti-FITC) antibodies, Alexa-Fluor 594 (SK-BR-3 cells [12]): higher

G4YGRKKRRQR3G4K8 (GGGGYGRKKRRQRRRGGGGKKKKKKKK; Human immunodeficiency virus type 1) [TAK8]
facilitating transport of FITC-O-24 across the cell membrane (HeLa cells [2]): decreased ability to facilitate transport

B1: fluor-G4YGRKKRRQR3G3MPNLWFL2FLGLVA2MQL5FL3F2LVYW DHFECSCTGLPF (peptide)
chain: fluor-GGGGYGRKKRRQRRRGGGMPNLWFLLFLGLVAAMQLLLLLFLLLFFLVYWDHFECSCTGLPF
localization of fluorescein labeled peptide in the cell (SK-BR-3 cells [4]): localized in a few foci at the cell surface

— patent US20030170826A1, “Peptides for facilitating composite receptor expression and translocation of macromolecules” (priority 2001, published 2003)
